Species: Rattus norvegicus
Assay: DrugMatrix - Regimen: Daily Repeat
Assay type: toxicity, organism-based, Sprague-Dawley
Parameters: regimen Daily Repeat, gender Male, age 6-8 weeks
Conditions: in vivo, po, route oral GAVAGE, vehicle 100 % WATER; for ABSOLUTE BASOPHIL / ABSOLUTE EOSINOPHIL / ABSOLUTE LYMPHOCYTE / ABSOLUTE MONOCYTE / ABSOLUTE SEGMENTED NEUTROPHIL / BASOPHIL / EOSINOPHIL / ERYTHROCYTE COUNT / HEMATOCRIT / HEMOGLOBIN / LEUKOCYTE COUNT / LYMPHOCYTE / MEAN CORPUSCULAR HEMOGLOBIN / MEAN CORPUSCULAR HEMOGLOBIN CONCENTRATION / MEAN CORPUSCULAR VOLUME / MONOCYTE / NEUTROPHIL / NUCLEATED RED BLOOD CELLS / PLATELET COUNT: tissue Blood; for ALANINE AMINOTRANSFERASE / ALBUMIN / ALKALINE PHOSPHATASE / ASPARTATE AMINOTRANSFERASE / BLOOD UREA NITROGEN / CARBON DIOXIDE / CHLORIDE / CHOLESTEROL / CREATINE PHOSPHOKINASE / CREATININE / GLUCOSE / LACTATE DEHYDROGENASE / LIPASE / PHOSPHORUS / POTASSIUM / SODIUM / TOTAL BILIRUBIN / TOTAL PROTEIN / URIC ACID: tissue Plasma
[1] = 0 mg/kg, 72 h, dose level Control, time 3 day
[2] = 0 mg/kg, 120 h, dose level Control, time 5 day
[3] = 0.07 mg/kg, 72 h, dose level Low, time 3 day

Cc1cc(C(C)(C)C)c(O)c(C)c1CC1=NCCN1 [OXYMETAZOLINE]
ABSOLUTE BASOPHIL [1]: 0 CELLS/uL | ABSOLUTE EOSINOPHIL [1]: 123.17 CELLS/uL | ABSOLUTE LYMPHOCYTE [1]: 12677.83 CELLS/uL | ABSOLUTE MONOCYTE [1]: 66.17 CELLS/uL | ABSOLUTE SEGMENTED NEUTROPHIL [1]: 1149.5 CELLS/uL | BASOPHIL [1]: 0% | EOSINOPHIL [1]: 0.83% | ERYTHROCYTE COUNT [1]: 5.26 x10E6/uL | HEMATOCRIT [1]: 33.07% | HEMOGLOBIN [1]: 13.43 G/DL | LEUKOCYTE COUNT [1]: 14.02 x10E3/uL | LYMPHOCYTE [1]: 90.17% | MEAN CORPUSCULAR HEMOGLOBIN [1]: 25.62 pg | MEAN CORPUSCULAR HEMOGLOBIN CONCENTRATION [1]: 40.65 G/DL | MEAN CORPUSCULAR VOLUME [1]: 63 fL | MONOCYTE [1]: 0.5% | NEUTROPHIL [1]: 8.5% | NUCLEATED RED BLOOD CELLS [1]: 0.17 /100WBC | PLATELET COUNT [1]: 1142.83 x10E3/uL | ALANINE AMINOTRANSFERASE [1]: 45.17 u/L | ALBUMIN [1]: 3.78 G/DL | ALKALINE PHOSPHATASE [1]: 340.17 u/L | ASPARTATE AMINOTRANSFERASE [1]: 77.33 u/L | BLOOD UREA NITROGEN [1]: 14.67 mg/dL | CARBON DIOXIDE [1]: 28.67 mmol/L | CHLORIDE [1]: 101.17 MEQ/L | CHOLESTEROL [1]: 77.67 mg/dL | CREATINE PHOSPHOKINASE [1]: 263.67 u/L | CREATININE [1]: 0.15 mg/dL | GLUCOSE [1]: 169.33 mg/dL | LACTATE DEHYDROGENASE [1]: 230 u/L | LIPASE [1]: 9.67 u/L | PHOSPHORUS [1]: 11.8 mg/dL | POTASSIUM [1]: 5.91 MEQ/L | SODIUM [1]: 142.88 MEQ/L | TOTAL BILIRUBIN [1]: 0.22 mg/dL | TOTAL PROTEIN [1]: 5.7 G/DL | URIC ACID [1]: 1.35 mg/dL | ABSOLUTE BASOPHIL [2]: 0 CELLS/uL | ABSOLUTE EOSINOPHIL [2]: 125 CELLS/uL | ABSOLUTE LYMPHOCYTE [2]: 13809 CELLS/uL | ABSOLUTE MONOCYTE [2]: 351 CELLS/uL | ABSOLUTE SEGMENTED NEUTROPHIL [2]: 1581.67 CELLS/uL | BASOPHIL [2]: 0% | EOSINOPHIL [2]: 0.67% | ERYTHROCYTE COUNT [2]: 5.53 x10E6/uL | HEMATOCRIT [2]: 34.83% | HEMOGLOBIN [2]: 13.9 G/DL | LEUKOCYTE COUNT [2]: 15.87 x10E3/uL | LYMPHOCYTE [2]: 87.5% | MEAN CORPUSCULAR HEMOGLOBIN [2]: 25.25 pg | MEAN CORPUSCULAR HEMOGLOBIN CONCENTRATION [2]: 40.08 G/DL | MEAN CORPUSCULAR VOLUME [2]: 63.05 fL | MONOCYTE [2]: 2.17% | NEUTROPHIL [2]: 9.67% | NUCLEATED RED BLOOD CELLS [2]: 0 /100WBC | PLATELET COUNT [2]: 1044 x10E3/uL | ALANINE AMINOTRANSFERASE [2]: 50.67 u/L | ALBUMIN [2]: 4.33 G/DL | ALKALINE PHOSPHATASE [2]: 395 u/L | ASPARTATE AMINOTRANSFERASE [2]: 86 u/L | BLOOD UREA NITROGEN [2]: 15.33 mg/dL | CARBON DIOXIDE [2]: 29.33 mmol/L | CHLORIDE [2]: 101.5 MEQ/L | CHOLESTEROL [2]: 71.33 mg/dL | CREATINE PHOSPHOKINASE [2]: 323.17 u/L | CREATININE [2]: 0.18 mg/dL | GLUCOSE [2]: 145.67 mg/dL | LACTATE DEHYDROGENASE [2]: 389.5 u/L | LIPASE [2]: 9.83 u/L | PHOSPHORUS [2]: 11.35 mg/dL | POTASSIUM [2]: 6.39 MEQ/L | SODIUM [2]: 142.77 MEQ/L | TOTAL BILIRUBIN [2]: 0.18 mg/dL | TOTAL PROTEIN [2]: 6.1 G/DL | URIC ACID [2]: 1.52 mg/dL | ABSOLUTE BASOPHIL [3]: 0 CELLS/uL | ABSOLUTE EOSINOPHIL [3]: 62.33 CELLS/uL | ABSOLUTE LYMPHOCYTE [3]: 13944.33 CELLS/uL | ABSOLUTE MONOCYTE [3]: 0 CELLS/uL | ABSOLUTE SEGMENTED NEUTROPHIL [3]: 1260 CELLS/uL | BASOPHIL [3]: 0% | EOSINOPHIL [3]: 0.33% | ERYTHROCYTE COUNT [3]: 5.43 x10E6/uL | HEMATOCRIT [3]: 34.37% | HEMOGLOBIN [3]: 13.87 G/DL | LEUKOCYTE COUNT [3]: 15.27 x10E3/uL | LYMPHOCYTE [3]: 91.67% | MEAN CORPUSCULAR HEMOGLOBIN [3]: 25.53 pg | MEAN CORPUSCULAR HEMOGLOBIN CONCENTRATION [3]: 40.33 G/DL | MEAN CORPUSCULAR VOLUME [3]: 63.33 fL | MONOCYTE [3]: 0% | NEUTROPHIL [3]: 8% | NUCLEATED RED BLOOD CELLS [3]: 0.33 /100WBC | PLATELET COUNT [3]: 1341.33 x10E3/uL | ALANINE AMINOTRANSFERASE [3]: 49.33 u/L | ALBUMIN [3]: 3.83 G/DL | ALKALINE PHOSPHATASE [3]: 309.33 u/L | ASPARTATE AMINOTRANSFERASE [3]: 74 u/L | BLOOD UREA NITROGEN [3]: 12.33 mg/dL | CARBON DIOXIDE [3]: 33.33 mmol/L | CHLORIDE [3]: 100.33 MEQ/L | CHOLESTEROL [3]: 68.67 mg/dL | CREATINE PHOSPHOKINASE [3]: 205.67 u/L | CREATININE [3]: 0.12 mg/dL | GLUCOSE [3]: 144.67 mg/dL | LACTATE DEHYDROGENASE [3]: 166.67 u/L | LIPASE [3]: 10 u/L | PHOSPHORUS [3]: 10.43 mg/dL | POTASSIUM [3]: 6.84 MEQ/L | SODIUM [3]: 142.8 MEQ/L | TOTAL BILIRUBIN [3]: 0.2 mg/dL | TOTAL PROTEIN [3]: 5.67 G/DL | URIC ACID [3]: 1.37 mg/dL

From ChEMBL document CHEMBL3885881, “DrugMatrix”
